Read-outs that look alike come from different tables or passages of the source.
How the values were obtained:
Assay type in all cases: cell-based, human
[1] = test system: HT-29 (colorectal carcinoma, B-RafV600E) cells; assay: Cell proliferation (Alamar Blue) assay, HT-29; settings: Homo sapiens, HT-29, HT29 cells
Summary of the method: (§1)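 5000 cells/well, 16-24 h attach; cpd 0.0005-10 uM (3-fold dilns) x 72 h, 37° C./5% CO2; Alamar Blue 1× 1-3 h; fluor 540/590 nm; IC50, variable-slope sigmoid.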

[2] = test system: HCT116 (colorectal carcinoma, K Ras G13D) cells; assay: Cell proliferation (Alamar Blue) assay, HCT116; settings: Homo sapiens, HCT-116, HCT116 cells
Summary of the method: as §1

[3] = test system: phosphorylation of RSK1(S380) (the downstream target of ERK1/2); assay: Phospho-RSK1(S380) ELISA assay in HT-29 cells; settings: Homo sapiens, HT-29, HT29 cells, read-out: Mechanistic Cell Assay RSK1 Phos HT29 IC50
Procedure: Phospho-RSK1(S380) ELISA Assay
HT-29 cells (colorectal carcinoma, B-RafV600E); obtained from ATCC, USA) were seeded (60,000 cells/well) in a 96-well plate and incubated at 37° C./5% CO2 overnight and then treated with desired compound dilutions for 2 h. Medium was removed and cells were rinsed once with ice-cold 1×PBS, then 0.070 mL ice-cold 1× cell lysis buffer containing 1 mM PMSF was added to each well and the plate was incubated on a shaker for 2 h and 30 min at 4° C. The plate was then centrifuged for 20 min (×4000 rpm) at 4° C. and the supernatant was transferred to a new plate. Cell lysates were diluted with sample diluent at a ratio of 1:1. The ELISA was then carried out following the manufacturer's protocol (PathScan® phospho-RSK1(Ser380) Sandwich ELISA Kit, Cell Signaling Technologies). The plate was read at 450 nm within 30 min after adding STOP solution. The IC50 values were subsequently determined using a sigmoidal dose-response curve (variable slope) in GraphPad Prism® 5 software.

SMILES: Cc1cnc(NC2CCOCC2)nc1-n1cnc(C(=O)NC(CN)c2cccc(Cl)c2)c1 (racemic) [Compound 225, N-(2-Amino-1-(3-chlorophenyl)ethyl)-1-(5-methyl-2-((tetrahydro-2H-pyran-4-yl)amino)pyrimidin-4-yl)-1H-imidazole-4-carboxamide]
- IC50 [1]: ≤ 100 nM
- IC50 [2]: ≤ 100 nM
- IC50 ([3]; phospho-RSK1(S380)): ≤ 100 nM

SMILES: Cc1cnc(NC2CCOCC2)nc1-n1cnc(C(=O)N[C@@H](CN)c2cccc(Cl)c2)c1 (single isomer, unassigned) [Compound 225b]
- IC50 [1]: ≤ 100 nM
- IC50 [2]: 500 to 2500 nM
- IC50 ([3]; phospho-RSK1(S380)): 100 to 250 nM

SMILES: Cc1cnc(Nc2ccccc2)cc1-n1ccc(C(=O)NC(CO)c2ccccc2)c1 (centres unmarked) [Cmpd 74, N-(2-hydroxy-1-phenylethyl)-1-(5-methyl-2-(phenyl-amino)pyridin-4-yl)-1H-pyrrole-3-carboxamide]
- IC50 [1]: 500 to 2500 nM
- IC50 [2]: > 2500 nM
- IC50 ([3]; phospho-RSK1(S380)): 500 to 2500 nM

SMILES: O=C(NC(CO)c1cccc(Cl)c1)c1cn(-c2ccnc(Nc3ccccc3)c2)cn1 (centres unmarked) [Cmpd 77, N-(1-(3-chloro-phenyl)-2-hydroxy-ethyl)-1-(2-(phenyl-amino)pyridin-4-yl)-1H-imidazole-4-carboxamide]
- IC50 [1]: 500 to 2500 nM
- IC50 [2]: > 2500 nM
- IC50 ([3]; phospho-RSK1(S380)): 100 to 250 nM

SMILES: Cc1cnc(NC2CCOCC2)nc1-n1cnc(C(=O)NCc2cccc(Cl)c2CO)c1 [Cmpd 93, N-(3-chloro-2-(hydroxy-methyl)benzyl)-1-(5-methyl-2-((tetrahydro-2H-pyran-4-yl)amino)-pyrimidin-4-yl)-1H-imidazole-4-carboxamide]
- IC50 [1]: ≤ 100 nM
- IC50 [2]: ≤ 100 nM
- IC50 ([3]; phospho-RSK1(S380)): ≤ 100 nM

SMILES: CC[C@H](CO)Nc1cc(-n2cnc(C(=O)N[C@H](CO)c3cccc(Cl)c3)c2)ccn1 [Cmpd 105, N-((S)-1-(3-chlorophenyl)-2-hydroxy-ethyl)-1-(2-(((R)-1-hydroxy-butan-2-yl)amino)pyridin-4-yl)-1H-imidazole-4-carboxamide]
- IC50 [1]: > 2500 nM
- IC50 [2]: > 2500 nM
- IC50 ([3]; phospho-RSK1(S380)): 100 to 250 nM

SMILES: O=C(NC(CO)c1cccc(Cl)c1)c1cn(-c2cc(Nc3ccccc3)ncc2Cl)cn1 (centres unmarked) [Cmpd 106, 1-(5-chloro-2-(phenyl-amino)pyridin-4-yl)-N-(1-(3-chlorophenyl)-2-hydroxy-ethyl)-1H-imidazole-4-carboxamide]
- IC50 [1]: 500 to 2500 nM
- IC50 [2]: > 2500 nM
- IC50 ([3]; phospho-RSK1(S380)): 100 to 250 nM

SMILES: Cc1cnc(Nc2ccc3c(c2)OC(F)(F)O3)nc1-n1ccc(C(=O)NC(CN)c2cccc(Cl)c2)c1 (centres unmarked) [Cmpd 136, N-(2-amino-1-(3-chloro-phenyl)ethyl)-1-(2-((2,2-difluoro-benzo[d][1,3]dioxol-5-yl)amino)-5-methyl-pyrimidin-4-yl)-1H-pyrrole-3-carboxamide]
- IC50 [1]: 500 to 2500 nM
- IC50 [2]: 500 to 2500 nM
- IC50 ([3]; phospho-RSK1(S380)): > 2500 nM

SMILES: Cc1cnc(Nc2ccc(F)cc2)nc1-n1cc(C(=O)NC(CO)c2ccccc2)nc1C (centres unmarked) [Cmpd 153, 1-(2-((4-fluoro-phenyl)amino)-5-methyl-pyrimidin-4-yl)-N-(2-hydroxy-1-phenylethyl)-2-methyl-1H-imidazole-4-carboxamide]
- IC50 [1]: > 2500 nM
- IC50 [2]: > 2500 nM
- IC50 ([3]; phospho-RSK1(S380)): > 2500 nM

SMILES: Cc1cnc(Nc2ccc(F)cc2)cc1-n1ccc(C(=O)NC(CN)c2cccc(Cl)c2)c1 (centres unmarked) [Cmpd 159, N-(2-amino-1-(3-chloro-phenyl)ethyl)-1-(2-((4-fluoro-phenyl)amino)-5-methyl-pyridin-4-yl)-1H-pyrrole-3-carboxamide]
- IC50 [1]: 500 to 2500 nM
- IC50 [2]: 500 to 2500 nM
- IC50 ([3]; phospho-RSK1(S380)): 500 to 2500 nM

SMILES: Cc1cnc(Nc2ccc3c(c2)OCO3)nc1-n1cnc(C(=O)N[C@H](CN)c2cccc(Cl)c2)c1 [Example 266, (S)-N-(2-amino-1-(3-chlorophenyl)ethyl)-1-(2-(benzo[d][1,3]dioxol-5-ylamino)-5-methylpyrimidin-4-yl)-1H-imidazole-4-carboxamide]
- IC50 [2]: ≤ 100 nM
- IC50 ([3]; phospho-RSK1(S380)): ≤ 100 nM

SMILES: Cc1cnc(NC2CCOCC2)nc1-n1cnc(C(=O)NC(CN)c2cccs2)c1 (centres unmarked) [Example 267, N-(2-amino-1-(thiophen-2-yl)ethyl)-1-(5-methyl-2-((tetrahydro-2H-pyran-4-yl)amino)pyrimidin-4-yl)-1H-imidazole-4-carboxamide]
- IC50 [2]: 100 to 250 nM
- IC50 ([3]; phospho-RSK1(S380)): 100 to 250 nM

SMILES: Cc1cnc(NC2COC2)nc1-n1cnc(C(=O)N[C@H](CN)c2cccc(Cl)c2)c1 [Example 268, (S)-N-(2-amino-1-(3-chlorophenyl)ethyl)-1-(5-methyl-2-(oxetan-3-ylamino)pyrimidin-4-yl)-1H-imidazole-4-carboxamide]
- IC50 [2]: ≤ 100 nM
- IC50 ([3]; phospho-RSK1(S380)): ≤ 100 nM

SMILES: Cc1cnc(Nc2ccc3c(c2)OCO3)nc1-n1cnc(C(=O)NC(CN)c2cc(F)cc(Cl)c2)c1 (centres unmarked) [Example 269, N-(2-amino-1-(3-chloro-5-fluorophenyl)ethyl)-1-(2-(benzo[d][1,3]dioxol-5-ylamino)-5-methylpyrimidin-4-yl)-1H-imidazole-4-carboxamide]
- IC50 [2]: ≤ 100 nM
- IC50 ([3]; phospho-RSK1(S380)): ≤ 100 nM

SMILES: Cc1cnc(NC2CCOc3ccccc32)nc1-n1cnc(C(=O)N[C@H](CN)c2cccc(Cl)c2)c1 (stereo partly drawn) [Example 271, N-((S)-2-amino-1-(3-chlorophenyl)ethyl)-1-(2-(chroman-4-ylamino)-5-methylpyrimidin-4-yl)-1H-imidazole-4-carboxamide]
- IC50 [2]: ≤ 100 nM
- IC50 ([3]; phospho-RSK1(S380)): ≤ 100 nM

SMILES: Cc1cnc(Nc2cccc(N3CCOCC3)c2)nc1-n1cnc(C(=O)N[C@H](CN)c2cccc(Cl)c2)c1 [Example 272, (S)-N-(2-amino-1-(3-chlorophenyl)ethyl)-1-(5-methyl-2-((3-morpholinophenyl)amino)pyrimidin-4-yl)-1H-imidazole-4-carboxamide]
- IC50 [2]: 100 to 250 nM
- IC50 ([3]; phospho-RSK1(S380)): 250 to 500 nM

SMILES: Cc1cnc(NC2CC(F)(F)C2)nc1-n1cnc(C(=O)NCc2cccc(Cl)c2CO)c1 [Example 273, N-(3-chloro-2-(hydroxymethyl)benzyl)-1-(2-((3,3-difluorocyclobutyl)amino)-5-methylpyrimidin-4-yl)-1H-imidazole-4-carboxamide]
- IC50 [2]: ≤ 100 nM
- IC50 ([3]; phospho-RSK1(S380)): 100 to 250 nM

SMILES: Cc1cnc(NC2CC(F)(F)C2)nc1-n1cnc(C(=O)NC(CN)c2cc(F)cc(Cl)c2)c1 (centres unmarked) [Example 278, N-(2-amino-1-(3-chloro-5-fluorophenyl)ethyl)-1-(2-((3,3-difluorocyclobutyl)amino)-5-methylpyrimidin-4-yl)-1H-imidazole-4-carboxamide]
- IC50 [2]: ≤ 100 nM
- IC50 ([3]; phospho-RSK1(S380)): ≤ 100 nM

SMILES: Cc1cnc(NC2CC(F)(F)C2)nc1-n1cnc(C(=O)N[C@@H](CN)c2cc(F)cc(Cl)c2)c1 [Example 289, (R)-N-(2-amino-1-(3-chloro-5-fluorophenyl)ethyl)-1-(2-((3,3-difluorocyclobutyl)amino)-5-methylpyrimidin-4-yl)-1H-imidazole-4-carboxamide]
- IC50 [2]: > 2500 nM
- IC50 ([3]; phospho-RSK1(S380)): 500 to 2500 nM

SMILES: Cc1cnc(NC2CC=CCC2)nc1-n1cnc(C(=O)N[C@H](CN)c2cccc(Cl)c2)c1 (stereo partly drawn) [Example 292, N-((S)-2-amino-1-(3-chlorophenyl)ethyl)-1-(2-(cyclohex-3-en-1-ylamino)-5-methylpyrimidin-4-yl)-1H-imidazole-4-carboxamide]
- IC50 [2]: ≤ 100 nM
- IC50 ([3]; phospho-RSK1(S380)): ≤ 100 nM

SMILES: Cc1cnc(NC2CCOCC2)nc1-n1cnc(C(=O)NCc2ccccc2C(C)(C)O)c1 [Example 293, N-(2-(2-hydroxypropan-2-yl)benzyl)-1-(5-methyl-2-((tetrahydro-2H-pyran-4-yl)amino)pyrimidin-4-yl)-1H-imidazole-4-carboxamide]
- IC50 [2]: 500 to 2500 nM
- IC50 ([3]; phospho-RSK1(S380)): 500 to 2500 nM

SMILES: Cc1cnc(NC2CCOCC2)nc1-n1cnc(C(=O)NCc2cccc(Cl)n2)c1 [Example 307, N-((6-chloropyridin-2-yl)methyl)-1-(5-methyl-2-((tetrahydro-2H-pyran-4-yl)amino)pyrimidin-4-yl)-1H-imidazole-4-carboxamide]
- IC50 [1]: 500 to 2500 nM
- IC50 ([3]; phospho-RSK1(S380)): 500 to 2500 nM

SMILES: Cc1cnc(N[C@H]2CCOC2)nc1-n1cnc(C(=O)NCc2cccc(C(F)(F)F)c2)c1 [Example 311, (S)-1-(5-methyl-2-((tetrahydrofuran-3-yl)amino)pyrimidin-4-yl)-N-(3-(trifluoromethyl)benzyl)-1H-imidazole-4-carboxamide]
- IC50 [2]: > 2500 nM
- IC50 [3]: 500 to 2500 nM

SMILES: Cc1cnc(NC2CCOCC2)nc1-n1cnc(C(=O)NC(C(N)=O)c2cccc(Cl)c2)c1 (centres unmarked) [Example 312, N-(2-amino-1-(3-chlorophenyl)-2-oxoethyl)-1-(5-methyl-2-((tetrahydro-2H-pyran-4-yl)amino)pyrimidin-4-yl)-1H-imidazole-4-carboxamide]
- IC50 [2]: > 2500 nM
- IC50 [3]: 500 to 2500 nM

SMILES: Cc1cnc(N[C@H]2CCOC2)nc1-n1cnc(C(=O)NCc2cc(Cl)cc(Cl)c2)c1 [Example 313, (S)-N-(3,5-dichlorobenzyl)-1-(5-methyl-2-((tetrahydrofuran-3-yl)amino)pyrimidin-4-yl)-1H-imidazole-4-carboxamide]
- IC50 [2]: > 2500 nM
- IC50 [3]: 250 to 500 nM

SMILES: Cc1cnc(N[C@H]2CCOC2)nc1-n1cnc(C(=O)NCc2ccc(Cl)c(Cl)c2)c1 [Example 314, (S)-N-(3,4-dichlorobenzyl)-1-(5-methyl-2-((tetrahydrofuran-3-yl)amino)pyrimidin-4-yl)-1H-imidazole-4-carboxamide]
- IC50 [2]: > 2500 nM
- IC50 [3]: 250 to 500 nM

Reference: patent US11925629B2, “Heterocyclic inhibitors of ERK1 and ERK2 and their use in the treatment of cancer” (Asana Biosciences, LLC, priority 2015, dated 2024)
